From ChEMBL document CHEMBL1201862, “PubChem BioAssay data set” (2004)
The source made the active and inactive calls.

Experiments:
[1] = molecular target: T1, Heat shock factor protein 1 (Mus musculus, UniProt P38532); assay: inhibition of MG132-induced HSE-luciferase signal, confirmation, cell-based, NIH3T3, luminescence, dose retest (AID 2382); type: functional;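 note: NIH3T3 fibroblasts with HSF1-driven luciferase reporter stressed by proteasome inhibitor MG132; luminescence from HSF1-driven luciferase expression after 8 hours of MG132 stress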
T1 sequence (P38532 whole entry): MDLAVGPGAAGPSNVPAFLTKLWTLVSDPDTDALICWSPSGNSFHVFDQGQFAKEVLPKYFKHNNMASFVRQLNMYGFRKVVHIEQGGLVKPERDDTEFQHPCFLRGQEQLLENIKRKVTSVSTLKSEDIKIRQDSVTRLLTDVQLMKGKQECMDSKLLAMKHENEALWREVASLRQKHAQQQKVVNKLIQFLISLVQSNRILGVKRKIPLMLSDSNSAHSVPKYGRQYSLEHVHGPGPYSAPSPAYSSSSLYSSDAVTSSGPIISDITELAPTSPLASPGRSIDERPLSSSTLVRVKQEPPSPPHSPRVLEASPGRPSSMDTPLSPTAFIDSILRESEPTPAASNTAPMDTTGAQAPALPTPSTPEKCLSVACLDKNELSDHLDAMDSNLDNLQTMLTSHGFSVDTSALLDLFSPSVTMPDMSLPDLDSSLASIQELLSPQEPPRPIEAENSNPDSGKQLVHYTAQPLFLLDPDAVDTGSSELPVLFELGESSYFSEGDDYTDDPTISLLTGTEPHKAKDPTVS

[2] = molecular target: T2, Polyadenylate-binding protein 1 (Homo sapiens, UniProt P11940); assay: PABP1 MLLE–PAM2 interaction inhibitors, dose response, miRNA deadenylation inhibitor project, biochemical, fluorescence polarization, Cy5-PAM2 peptide, secondary (AID 602260); type: functional; conditions: read-out: IC50_Mean
T2 sequence (P11940 whole entry): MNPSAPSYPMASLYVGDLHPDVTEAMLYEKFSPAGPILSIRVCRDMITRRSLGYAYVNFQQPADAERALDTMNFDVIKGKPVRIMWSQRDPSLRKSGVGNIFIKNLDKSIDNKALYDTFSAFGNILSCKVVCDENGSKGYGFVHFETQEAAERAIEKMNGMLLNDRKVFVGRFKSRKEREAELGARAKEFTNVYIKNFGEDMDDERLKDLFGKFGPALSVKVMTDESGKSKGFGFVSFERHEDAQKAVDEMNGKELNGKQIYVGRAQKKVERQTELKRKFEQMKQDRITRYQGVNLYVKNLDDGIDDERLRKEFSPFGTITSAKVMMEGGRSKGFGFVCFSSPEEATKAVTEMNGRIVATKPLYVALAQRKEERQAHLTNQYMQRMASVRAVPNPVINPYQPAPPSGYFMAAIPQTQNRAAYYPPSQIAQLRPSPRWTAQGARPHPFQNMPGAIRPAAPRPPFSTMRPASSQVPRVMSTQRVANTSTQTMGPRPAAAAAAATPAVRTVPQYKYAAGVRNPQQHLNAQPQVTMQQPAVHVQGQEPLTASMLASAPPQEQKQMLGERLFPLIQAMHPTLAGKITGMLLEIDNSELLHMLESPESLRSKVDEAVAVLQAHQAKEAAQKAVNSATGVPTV

[3] = molecular target: T2, Polyadenylate-binding protein 1; assay: PABP1 MLLE–PAM2 binding inhibitor potency, dose response, biochemical, fluorescence polarization, FITC-PAM2 peptide (AID 602259); type: functional; conditions: read-out: IC50_Mean
[4] = molecular target: Cytochrome P450 2C19 (Homo sapiens, UniProt P33261); assay: Cytochrome panel assay with activity outcomes. Panel member name: p450-cyp2c19 Compounds with AC50 equal or less than 10 uM are considered active; type: functional; conditions: read-out: AC50
Cytochrome P450 2C19, sequence (P33261 whole entry, the tested form may be a part): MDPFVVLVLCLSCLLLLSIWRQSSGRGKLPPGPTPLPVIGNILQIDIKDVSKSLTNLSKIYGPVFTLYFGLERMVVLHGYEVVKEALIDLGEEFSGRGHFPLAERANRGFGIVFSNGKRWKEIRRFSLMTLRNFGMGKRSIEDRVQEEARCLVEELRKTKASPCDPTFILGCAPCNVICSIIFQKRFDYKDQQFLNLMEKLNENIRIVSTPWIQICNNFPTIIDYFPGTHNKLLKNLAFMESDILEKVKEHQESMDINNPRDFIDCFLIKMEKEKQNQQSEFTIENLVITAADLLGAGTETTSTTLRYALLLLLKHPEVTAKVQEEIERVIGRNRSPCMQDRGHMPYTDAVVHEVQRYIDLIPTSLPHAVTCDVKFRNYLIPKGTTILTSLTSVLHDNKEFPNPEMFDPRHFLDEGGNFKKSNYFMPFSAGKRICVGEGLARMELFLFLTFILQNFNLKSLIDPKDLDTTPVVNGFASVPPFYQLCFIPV

[5] = inhibitors of clade B AD8 Env fusion, dose response, cell-based, cherry-pick (AID 652062); type: functional;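 note: luciferase signal from cell-cell fusion driven by HIV-1 clade B AD8 Env; potency is for inhibitors of fusion seen as a drop in luminescence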
[6] = molecular target: Cytochrome P450 2D6 (Homo sapiens, UniProt P10635);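 note: CYP2D6 member of a cytochrome P450 panel assay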
Cytochrome P450 2D6, sequence (P10635 whole entry): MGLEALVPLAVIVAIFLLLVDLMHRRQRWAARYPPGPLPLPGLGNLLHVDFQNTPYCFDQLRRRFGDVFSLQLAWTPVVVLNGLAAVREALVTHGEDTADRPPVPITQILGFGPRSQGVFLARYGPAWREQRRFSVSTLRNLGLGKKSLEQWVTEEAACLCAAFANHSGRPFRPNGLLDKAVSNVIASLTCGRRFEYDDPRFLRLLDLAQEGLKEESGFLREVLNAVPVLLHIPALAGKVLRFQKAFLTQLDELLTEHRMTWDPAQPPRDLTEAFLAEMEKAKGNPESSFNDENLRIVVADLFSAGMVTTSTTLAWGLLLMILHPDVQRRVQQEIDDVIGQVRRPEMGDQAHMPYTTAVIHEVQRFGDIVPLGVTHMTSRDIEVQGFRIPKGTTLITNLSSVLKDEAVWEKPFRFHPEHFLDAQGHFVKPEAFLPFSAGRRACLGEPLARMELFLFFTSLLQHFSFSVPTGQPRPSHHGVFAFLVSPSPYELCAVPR

[7] = molecular target: T3, Calpain-2 catalytic subunit (Sus scrofa, UniProt P43367); assay: pig calpain II inhibitor potency, dose response, biochemical, fluorogenic peptide substrate (AID 1420); type: functional
T3 sequence (P43367 whole entry): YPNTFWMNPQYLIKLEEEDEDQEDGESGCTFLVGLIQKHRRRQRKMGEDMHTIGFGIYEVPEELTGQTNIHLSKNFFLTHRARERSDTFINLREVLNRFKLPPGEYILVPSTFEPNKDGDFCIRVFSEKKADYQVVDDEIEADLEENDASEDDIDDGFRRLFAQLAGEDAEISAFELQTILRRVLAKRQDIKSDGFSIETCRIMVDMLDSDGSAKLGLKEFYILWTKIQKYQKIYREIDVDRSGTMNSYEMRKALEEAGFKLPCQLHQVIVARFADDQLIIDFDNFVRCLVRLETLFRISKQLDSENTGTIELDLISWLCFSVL

[8] = molecular target: T1, Heat shock factor protein 1; assay: HSF1 potentiators in luciferase reporter cells, confirmation, cell-based, NIH3T3, luminescence, dose retest (AID 435004); type: functional;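 note: stress induced by proteasome inhibitor MG132 added 30 min after compound; luciferase reporter driven by HSF1 response element in NIH3T3 cells; actives raise luminescence as potentiators of the MG132 stress response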
[9] = molecular target: T4, Replicative DNA helicase DnaB (Mycobacterium tuberculosis, UniProt P9WMR3); assay: DnaB intein splicing inhibitors, dose response, biochemical, cell-free fluorescence (AID 449749); type: functional
T4 sequence (P9WMR3 whole entry): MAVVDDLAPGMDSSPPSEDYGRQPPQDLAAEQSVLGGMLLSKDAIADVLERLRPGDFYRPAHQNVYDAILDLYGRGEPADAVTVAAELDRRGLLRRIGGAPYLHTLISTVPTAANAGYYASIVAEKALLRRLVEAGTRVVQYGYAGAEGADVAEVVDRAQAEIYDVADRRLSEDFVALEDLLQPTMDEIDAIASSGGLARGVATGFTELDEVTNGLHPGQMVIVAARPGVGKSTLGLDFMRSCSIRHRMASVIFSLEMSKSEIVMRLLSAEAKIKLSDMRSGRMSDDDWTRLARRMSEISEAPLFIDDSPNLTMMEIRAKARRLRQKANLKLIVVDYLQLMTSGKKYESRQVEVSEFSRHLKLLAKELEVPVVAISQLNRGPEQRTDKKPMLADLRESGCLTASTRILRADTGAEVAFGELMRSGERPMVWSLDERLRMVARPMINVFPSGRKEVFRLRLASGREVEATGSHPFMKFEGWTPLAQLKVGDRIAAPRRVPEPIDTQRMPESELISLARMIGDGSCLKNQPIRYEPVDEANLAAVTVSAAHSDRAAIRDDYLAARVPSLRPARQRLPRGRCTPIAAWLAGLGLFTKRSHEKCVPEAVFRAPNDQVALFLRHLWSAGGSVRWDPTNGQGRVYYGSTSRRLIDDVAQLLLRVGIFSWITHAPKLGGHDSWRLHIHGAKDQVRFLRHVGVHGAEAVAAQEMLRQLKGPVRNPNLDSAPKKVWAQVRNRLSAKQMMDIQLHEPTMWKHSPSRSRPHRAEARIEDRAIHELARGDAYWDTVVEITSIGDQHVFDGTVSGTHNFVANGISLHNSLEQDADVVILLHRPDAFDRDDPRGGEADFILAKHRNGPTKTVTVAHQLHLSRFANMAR

[10] = molecular target: T5, Protein RecA (Mycobacterium tuberculosis, UniProt P9WHJ3); assay: Fluorescence Cell-Free Homogeneous Dose Retest to Identify Inhibitors of RecA-Intein Splicing Activity. [Related pubchem assays (depositor defined):AID2097, AID2223, AID489010, AID492950]; type: functional
T5 sequence (P9WHJ3 whole entry): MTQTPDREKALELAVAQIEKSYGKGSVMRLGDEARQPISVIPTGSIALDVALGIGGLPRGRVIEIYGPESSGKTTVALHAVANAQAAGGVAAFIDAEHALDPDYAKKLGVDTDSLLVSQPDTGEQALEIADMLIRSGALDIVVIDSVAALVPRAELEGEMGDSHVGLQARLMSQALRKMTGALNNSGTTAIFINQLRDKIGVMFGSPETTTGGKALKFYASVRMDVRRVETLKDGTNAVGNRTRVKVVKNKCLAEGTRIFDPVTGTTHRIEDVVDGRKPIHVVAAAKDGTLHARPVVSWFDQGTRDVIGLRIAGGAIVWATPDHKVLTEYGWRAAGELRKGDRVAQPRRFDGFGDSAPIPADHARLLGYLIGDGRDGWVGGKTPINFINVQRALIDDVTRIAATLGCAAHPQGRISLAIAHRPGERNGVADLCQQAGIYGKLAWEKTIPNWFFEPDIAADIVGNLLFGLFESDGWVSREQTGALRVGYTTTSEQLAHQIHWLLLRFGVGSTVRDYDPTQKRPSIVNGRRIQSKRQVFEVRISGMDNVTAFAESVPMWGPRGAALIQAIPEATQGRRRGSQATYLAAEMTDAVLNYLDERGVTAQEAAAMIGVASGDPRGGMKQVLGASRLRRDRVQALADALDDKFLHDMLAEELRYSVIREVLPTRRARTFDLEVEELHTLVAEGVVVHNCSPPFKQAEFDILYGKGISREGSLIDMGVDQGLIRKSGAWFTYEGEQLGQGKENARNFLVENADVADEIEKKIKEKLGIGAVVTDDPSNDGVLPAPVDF

[11] = test system: H9c2; assay: cells; type: functional, cell-based; conditions: Rattus norvegicus, H9c2, Myocardium;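 note: confirmatory concentration-response retest of ultra-high-throughput screening hits for modulation of myocardial damage; cell death induced by hydrogen peroxide oxidative stress; compound pretreatment for 60 min then peroxide exposure for 2 h; potency is for protecting the cells against peroxide damage rather than for killing them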
[12] = cells; type: functional
[13] = Shn3 3'UTR reporter inhibitors, dose response, cell-based, Clone20 osteoblasts, firefly luciferase, cherry-picked (AID 624132); type: functional;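 note: firefly luciferase luminescence from reporter carrying the Shn3 3'UTR in osteoblasts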
[14] = control 3'UTR Renilla luciferase suppression, dose response, counter-screen for Shn3 inhibitor project, cell-based, Clone20-Shn3RL, cherry-picked (AID 624133); type: functional
[15] = P. falciparum Dd2 growth inhibitors, dose response, SYBR Green, cherry-picked samples (AID 1159567); type: functional, cell-based
[16] = microbe, parasite or virus in culture; type: functional; conditions: Mycobacterium tuberculosis
[17] = Luminescence Cell-Based Dose Retest to Confirm Inhibitors of Cancer Stem Cells. [Related pubchem assays (depositor defined):AID2717, AID2721]; type: functional; conditions: Homo sapiens

## CC1Cc2ccccc2N1C(=O)CSc1ncccc1C(=O)O (stereo not given)
[1]
  EC50: > 195 µM (not active)

## CCN(CC)CCCN1C(=O)CSC1c1ccc([N+](=O)[O-])cc1 (stereo not given)
[2]
  IC50: > 66 µM (inactive)
[3]
  IC50: > 66 µM (inactive)

## CCCCOc1ccc(S(=O)(=O)Nc2cccnc2)cc1
[4]
  AC50: 0.355 µM (inconclusive)
[5]
  AC50: 7.89 µM (active)
[6]
  AC50: 25.1 µM (inconclusive)

## O=C(C1CCC(=O)N1C1CCCCC1)N1CCC2(CC1)OCCO2 (stereo not given)
[7]
  IC50: 8.43 µM (not active)

## CCC(c1nnnn1Cc1ccco1)N(Cc1cc2cc(OC)ccc2nc1O)C1CCCCC1 (stereo not given)
[8]
  EC50: 10.7 µM (active)
[9]
  AC50: > 380 µM (inactive)
[10]
  EC50: 40.2 µM (inconclusive)

## COc1ccccc1/C=N/NC(=O)c1ccc(Br)cc1
[7]
  IC50: 45.9 µM (not active)

## COc1cc(NC(=O)c2cc3ccccc3cc2OC)ccc1NC(=O)c1cccs1
[1]
  EC50: 14.1 µM (active)
[11]
  IC50: > 79 µM (inactive)

## COc1ccc(COc2cccc(C=O)c2)cc1
[12]
  IC50: 30.9 µM (active)

## Cc1ccc2cc(CN(CC3CCCO3)C(=O)NC3CCCCC3)c(O)nc2c1C (stereo not given)
[13]
  AC50: 4.49 µM (active)
[14]
  AC50: 9.37 µM (active)

## Cn1c(SCC(=O)NNC(=O)Nc2ccc(Cl)cc2)nnc1-c1ccccc1
[8]
  EC50: > 260 µM (inactive)

## COc1ccc2c3c([nH]c2c1)[C@H](CO)N(Cc1nccs1)CC31CN(Cc2cccnc2)C1
[15]
  AC50: 10.7 µM (active)

## COC(=O)c1c(NC(NC(C)=O)C(Cl)(Cl)Cl)sc2c1CCCC2 (stereo not given)
[7]
  IC50: > 50 µM (not active)

## CCOC(=O)Cc1nc2cc(Cl)ccc2o1
[12]
  IC50: 18.6 µM (active)

## Cc1ccc(/C=C/C(=O)N2CC(C)CC(C)C2)o1 (stereo not given)
[16]
  CC50: > 40 µM (active)
[17]
  AC50: 22.8 µM (active)
[8]
  EC50: 24.5 µM (active)

## COc1ccc2c3c(n(C)c2c1)[C@H](CO)N(C(=O)Nc1ccc(F)cc1)CC31CN(Cc2cccnc2)C1
[15]
  AC50: 3.4 µM (active)

## Cc1ccccc1S(=O)(=O)N1C[C@@H]2N[C@H](C1)[C@@H]2c1ccc(-c2ccc(C#N)cc2)cc1
[15]
  AC50: 3.32 µM (active)
